From patent publication US8324282B2, “Alkylating agent combinations in the treatment of cancer” (Case Western Reserve University, priority 1999, dated 2012)
pIC50: −log10 of the molar value. Entries after “also recorded” stand apart in the source; their conditions may differ. Like-named read-outs stand apart in the source and are kept apart here.

Tests used:
SW480 cells [1] = test: Colony survival assay, SW480; type: cell-based, human; conditions: for DMF (IC50 for TMZ alone/IC50 for TMZ plus modifier(s)): modifier(s) plus TMZ vs TMZ alone
Excerpt: (§1) Chemicals and Reagents. BG was generously provided by Dr. Robert Moschel (Frederick Cancer Research and Development Center, National Cancer Institute). Stock solution was made in dimethylsulfoxide. TMZ and BCNU were obtained from the Drug Synthesis and Chemistry Branch, Drug Therapeutic Program, National Cancer Center Institute. PD128763 was a gift from Park-Davis Pharmaceutical Division. 6-AN, 3-AB, MX and methylmethane sulfonate (MMS) were purchased from Sigma (ST. Louis, Mo.). Stock solutions of PD128763, 3-AB and 6-AN were prepared by dissolving in dimethylsulfoxide and added to cell culture at a final concentration of <1% DMSO, when cells were treated with these compounds. MX was dissolved in sterilized water (pH 7.0). All stock solutions were kept at −20° C. BCNU was prepared fresh in 0.5 ml of 100% ethanol, diluted in PBS, and used with in 10 min. Colony Survival Assay. SW480 cells were obtained from the ATCC. HCT116 cells were obtained from R. Boland, University of Michigan Medical Center. All cell lines were cultured in appropriate growth medium.
(§2) Cells (2000/dish) were plated, adhered for 18 hrs and treated with TMZ or
(§3) MMS plus or minus modifiers such as […], MX, 6-AN, 3-AB or PD128763, according to experimental protocol. After treatment, cells were washed and fresh medium was replaced. The cells were grown for a further 7 days prior to staining with methylene blue for determination of colonies containing more than 50 cells. Comparisons of drug induced cytotoxicity consisted of a calculation of the dose modification factor (DMF), defined as the ratio of the IC50 of either TMZ or MMS in the absence to that in the presence of indicted modifier(s), i.e., DMF═IC50 for TMZ alone/IC50 for TMZ plus modifier(s).

HCT116 cells [2] = test: Colony survival assay, HCT116; type: cell-based, human; conditions: for pIC50: Homo sapiens, HCT-116
Excerpt: as §1, §2, §3

[3] = Toxicity evaluation in mice bearing HCT116 xenograft; conditions: Table 2 doses
Description: (§5) Tumors in Nude Mice. Tumor cells (5×10^6) were injected into flanks of female athymic HSD nude mice, at 6-8 weeks of age. The tumors were measured with calipers using the National Cancer Institute formula: V=L(mm)×I^2 (mm)/2 where L is the largest diameter and I is the smallest diameter of the tumor. […] Toxicity Evaluation. Toxicity after treatment was evaluated by body weight measurements and peripheral WBC counting. Body weight was measured three times weekly from the first treatment until 2 weeks after the end of treatment. The weight loss was expressed as a percentage of the initial weight (initial weight−lowest weight/initial weight×100%).

HCT116 xenograft = HCT116 xenograft tumor response in nude mice; type: in vivo
SW480 xenograft = SW480 xenograft tumor response in nude mice; type: in vivo
SW480 cells [4] = test: Flow cytometry cell cycle distribution and apoptosis, SW480
Description: Median Effect Analysis (MEA). MEA was used to determine the dose-response interactions between TMZ and either MX or PD 128763. Drugs were combined at the ratio of the IC50 values for either TMZ and MX or TMZ and PD 128763 as determined by survival/concentration curves. The combination was compared to the cytotoxicity of each drug alone in every experiment. The combination index (CI) was determined from colony-forming assays at increasing levels of cell killing, using analysis of multiple drug interaction program (Biosoft, Cambridge, United Kingdom) developed based on method of Chou and Talalay (Chou and Talalay “Quantitative analysis of dose-effect relationship: the combined effects of multiple drugs on enzyme inhibitors” In: G. Weber (ed.) Advances in Enzyme Regulation, pp. 27-55, New York: Pergamon Press, 1983). CI values of less than or grater than 1 indicate synergy and antagonism, respectively, whereas a CI value of 1 indicates additivity of the drugs. Flow Cytometry for Cell Cycle Distribution Analysis. For cell cycle analysis, 10^6 cells were plated in 100-mm tissue culture dishes and exposed to MX (6 mM)/PD128763 (100 μM) or MX (6 mM)/PD128763 (100 μM) plus TMZ (300 μM) at 37° C. After 24 h-72 h of culture, cells were fixed in 80% ethanol and DNA was stained with 20 μg/ml propidium iodide. DNA fluorescence of PI-stained cells was measured with an Elite ESP flow cytometer/cell sorter (Coulter, Miami, Fla.). Cell cycle distribution was analyzed with Modfit 5.2 program (Verity software, Topsham, Mass.) at least 10,000 cells per data point. Western Blotting for PARP Cleavage Detection. Cell extracts were resolved by SDS-PAGE (12% polyacrylamide) in a Bio-Rad minigel apparatus at 150 V for 1 hr. […] The tumors were measured with calipers using the National Cancer Institute formula: V=L(mm)×I^2 (mm)/2 where L is the largest diameter and I is the smallest diameter of the tumor. […] The relative tumor volume (V/V0) was calculated by dividing the measured tumor volume (V) by the initial tumor volume (V0) at day 0. Tumor responses were quantified by tumor regrowth delay. Tumor growth delays were calculated according to: tumor growth delay=T2XC2X, where T2X and C2X represent the number of days treated and control tumors take to double in size from the day of treatment, respectively. […] Toxicity after treatment was evaluated by body weight measurements and peripheral WBC counting. Body weight was measured three times weekly from the first treatment until 2 weeks after the end of treatment. The weight loss was expressed as a percentage of the initial weight (initial weight−lowest weight/initial weight×100%). Peripheral WBCs were monitored 5 days after the end of treatment compared with WBCs of control mice.

[5] = Toxicity evaluation in mice bearing SW480 xenograft; conditions: Table 1 doses
Description: as §5

HCT116 cells [6] = test: Growth inhibition assay (MTT), HCT116; type: cell-based, human; conditions: Homo sapiens, HCT-116; MMR deficient HCT116 cells; IUdR alone or with MX 6 mM
Description: In this experiment, a growth inhibition assay was carried out with H2O2, an oxidizing agent that mimics the effect of chemotherapeutic agents and radiation. Cells in the exponential phase were plated (1×10^4) in 24-well tissue culture plates. After attachment overnight, the cells were incubated with hydrogen peroxide (H2O2) (0-150 μM) or MX (6 mM) plus H2O2 for 1 hr. Five days after treatment, the media was discarded, and 100 μl of MTT (5 mg/ml in PBS) was added in 1 ml fresh media to each well for 4 hrs at 37° C. The MTT solution was then removed, and the formazan crystals were dissolved in 200 μl/well of DMSO for 20 min and changes in absorbance were determined at A540nm. Percentage growth inhibition was calculated by comparison of the A540nm reading from treated versus control cells.
The agents contemplated for combinations with MX in this example are agents which incorporate into DNA and are repaired by BER to form AP sites. Cell-growth inhibition was carried out with HCT116 cells to test MX-potentiated cytotoxicity of iododeoxyuridine (IUdR), which has been recognized as a radiosensitizing agent since the early 1960's.

DEtp cell line = test: DEtp subline of DLD1; type: cell-based; conditions: DEtp subline
Excerpt: We also investigated whether TMZ and MX-induced MX-AP sites may also act as poisons of topoisomerase II α (topo II), producing dual lethal targets. To analyze the effect of MX-AP site on topo II-mediated DNA cleavage, a position-specific MX-AP site was generated on topo II cleavage sites using oligonuleotides for cleavage assay. […] We also found prolonged induction of topo II and remarkable increase in DNA double strand breaks in cells treated with TMZ and MX compared to TMZ alone. Similar results were also observed in cells treated with etoposide but not with N-methyl-maleimide (a catalytic inhibitor of topo II and also an antagonizer of etoposide). Moreover, the potentiation of TMZ by MX was decreased in DEtp cell line that was a subline derived from DLD1 and 5-fold more resistant to etoposide compared to the parental cell line.

[7] = system: human bone marrow cells (CD34+ cells); test: Colony forming assay, human bone marrow / CD34+ cells; type: cell-based; conditions: human bone marrow cells
Excerpt: (§4) We observed less myelosuppression and less weight loss using TMZ and MX than using TMZ and BG. […] To test this hypothesis, we conducted in vitro experiments comparing the sensitivity to BG+TMZ and MX+TMZ in colon cancer cell lines with that of mouse bone marrow and human bone marrow cells. […] MX increased TMZ killing by 4 fold in SW480 cells. […] Topoisomerase (Topo) I and Topo II recognize spontaneous AP sites and form stable cleavable complexes. We hypothesized that AP sites formed during repair of TMZ-induced N7 mG and N3 mA adducts would also be recognized by Topo I and Topo II. However since Base Excision Repair [BER] is normally quite efficient, we further hypothesized that the impact of Topo I and Topo II would be most important after MX inhibition of BER; increased unrepaired MX adducted AP sites should increase Topo mediated strand breaks and apoptosis. Therefore, potentiation of TMZ cytotoxicity by MX would be dependent on Topo I and II. […] Lack of Topo I and II results in less cleavable complex formation, fewer double strand DNA breaks, and less apoptosis. We predict a better therapeutic index for the combination of MX/TMZ than observed with BG/TMZ because of the relative overexpression of topoisomerases I and II in malignant cells compared to marrow progenitors.

MAWI cells = conditions: high levels of ATase; cited from earlier work
[8] = system: murine bone marrow progenitor cells; test: Colony forming assay, murine bone marrow progenitor cells; type: cell-based, mouse; conditions: mouse bone marrow cells
Excerpt: as §4

HCT116-Ch3 tumors = test: HCT116-Ch3 xenograft tumor response in nude mice; type: in vivo; conditions: BCNU 30 mg/kg single i.p.
Description: Nude mice carrying tumor received a single injection (i.p.) of BCNU (30 mg/kg) or MX (2 mg/kg) combined with BCNU.
Tumor measurements were taken every 3 days.
At the tumor sizes indicated above, the mice received a single i.p. injection, also as described above.

HCT116 cells [9] = test: Flow cytometry cell cycle distribution and apoptosis, HCT116; type: cell-based, human

COS(C)(=O)=O [MMS, methylmethane sulfonate]
pIC50 (SW480 cells [1]; Homo sapiens, SW480, SW480, read-out: IC50 of MMS): 3.09 | pIC50 (HCT116 cells [2]; HCT116, read-out: IC50 of MMS): 2.85

Cn1nnc2c(C(N)=O)ncn2c1=O [TMZ, temozolomide]
Toxicity (max. BW loss) [3]: 20.8% | Tumor growth delays (HCT116 xenograft; HCT116 xenograft, Table 2 doses: TMZ 120, MX 2, MX+TMZ 2/120 mg/kg, daily for 5 days): 2.5 ± 0.8 days | Tumor growth delays (SW480 xenograft; SW480 xenograft, Table 1 doses: TMZ 120, MX 2, BG+TMZ 30/120, MX+TMZ 2/120 mg/kg, daily for 5 days): 9.3 ± 1.2 days | tumor growth delay (SW480 xenograft; SW480 xenograft, text doses: TMZ 120 mg/kg, 0.2 mg/kg MX plus 120 mg/kg TMZ): approximately 12 days | pIC50 (SW480 cells [1]; Homo sapiens, SW480, SW480, TMZ 0-1500 μM 2 h, alone or with 6 mM MX and/or BG pretreatment, read-out: IC50 of TMZ): 3.40 | pIC50 (SW480 cells [1]; SW480, TMZ 0-1500 μM 2 h, alone or with 6 mM MX and/or BG pretreatment, read-out: IC50 of TMZ): 3.43 | pIC50 (HCT116 cells [2]; HCT116 (MH1 defective cells), even after inhibition of AGT by BG, read-out: IC50 of TMZ): 3.02 | cells accumulated in S and G2 (SW480 cells [4]; TMZ 300 μM, 24 hr): 75-90% | apoptotic cells (SW480 cells [4]; TMZ 300 μM, MX 6 mM, PD128763 100 μM, day 3): 8% | Toxicity (max. BW loss) [5]: 11%

O=c1[nH]c(=O)n([C@H]2C[C@H](O)[C@@H](CO)O2)cc1I [IUdR, 5-iodo-2′-deoxyuridine]
pIC50 (HCT116 cells [6]): < 4.22

COc1cc([C@@H]2c3cc4c(cc3[C@@H](O[C@@H]3O[C@@H]5CO[C@@H](C)O[C@H]5[C@H](O)[C@H]3O)[C@H]3COC(=O)[C@H]23)OCO4)cc(OC)c1O [etoposide]
resistance compared to parental DLD1 cell line (DEtp cell line): 5 fold

Nc1nc(OCc2ccccc2)c2nc[nH]c2n1 [BG, O^6-benzylguanine]
potentiation of TMZ cytotoxicity [7]: 10 fold | enhancement of tumor growth delay by BG (SW480 xenograft; 30 mg/kg BG one hour prior to 40 mg/kg TMZ): up to 3 fold | increase of BCNU cytotoxicity by BG (SW480 cells [1]; SW480): 3-4 fold | DMF / potentiation of MMS cytotoxicity (SW480 cells [1]; SW480, MMS 0-3 mM plus 6 mM MX and/or BG vs MMS alone): 6 fold | DMF (IC50 for TMZ alone/IC50 for TMZ plus modifier(s)) (SW480 cells [1]; SW480): 14 fold | potentiation of TMZ cytotoxicity (SW480 cells [1]; SW480 tumor cells, Example 13): up to 14 fold | enhancement of temozolomide toxicity (MAWI cells): 300 fold | increase of BCNU cytotoxicity by BG (HCT116 cells [2]; HCT116): 3-4 fold | additional effect of BG on potentiated cytotoxicity (HCT116 cells [2]; HCT116, BG added to MX or PD128763 combination): no effect | potentiation of TMZ cytotoxicity [8]: 10 fold

O=NN(CCCl)C(=O)NCCCl [BCNU, 1,3-bis(2-chloroethyl)-1-nitrosourea]
effect on tumor growth (HCT116 xenograft; HCT116 tumors, BCNU 30 mg/kg single i.p.): very mild effect | pIC50 (SW480 cells [1]; Homo sapiens, SW480, 2 h, SW480, BCNU alone or after 6 mM MX 2 hr and/or BG, read-out: BCNU IC50): 4.54 to 4.57 | pIC50 (HCT116 cells [2]; HCT116, BCNU alone or after 6 mM MX 2 hr and/or BG, read-out: BCNU IC50): 4.35 | effect on tumor growth (HCT116-Ch3 tumors): very mild effect

COc1cccc2c1CCNC2=O [PD128763, 3,4-dihydro-5-methoxyisoquinolin-1(2H)-one]
DMF (IC50 for TMZ alone/IC50 for TMZ plus modifier(s)) (SW480 cells [1]; SW480): 3.3 fold | effect of modifier on BCNU cytotoxicity (SW480 cells [1]; SW480, without BG): no enhancement; also recorded: no sensitization | DMF (IC50 for TMZ alone/IC50 for TMZ plus modifier) (HCT116 cells [2]; HCT116, modifier plus TMZ vs TMZ alone): 5.0 fold | effect of modifier on BCNU cytotoxicity (HCT116 cells [2]; HCT116, without BG): only minor enhancement; also recorded: no sensitization | effect on cell cycle distribution (HCT116 cells [9]): did not affect | effect of modifier alone on cell cycle distribution (SW480 cells [4]): did not affect
